Values quoted from earlier work, collected in patent publication US20070059740A1, “METHOD OF TARGETING A2B ADENOSINE RECEPTOR ANTAGONIST THERAPY” (priority 2005, published 2007).

Tested on: Zucker rats
Conditions: A2B adenosine receptor antagonist, reported by LaNoue et al., U.S. Pat. No. 6,060,481

For `CCCn1c(=O)c2[nH]c(-c3ccc(C=CC(=O)O)cc3)nc2n(CCC)c1=O` [1,3-dipropyl-8-(p-acrylic)-phenylxanthine], the glucose tolerance is given as “improves glucose tolerance”.
